Results on 60 compounds are retold here after ChEMBL document CHEMBL5729293, “Inhibitors of KEAP1-Nrf2 protein-protein interaction” (2022).

This assay in a line: Fluorescence Based Assay: The details of the KEAP1 KELCH ThermoFluor® Assay Construct are as follows: Kelch domain of human KEAP 1 (321-624 aa) was used in the assay. The protein was expressed in E. coli with 6His tag that was cleaved prior to receipt for use.ThermoFluor® experiments were carried out using instruments owned by Janssen Research and Discovery, L.L.C. through its acquisition of 3-Dimensional Pharmaceuticals, Inc. 1,8-ANS (Invitrogen) was used as a fluorescent dye. Protein (KEAP Kelch) and compound solutions were dispensed into black 384-well polypropylene PCR microplates (Abgene) and overlayed with silicone oil (1 μL, Fluka, type DC 200) to prevent evaporation.Reference wells contained KEAP Kelch without compounds, and the assay conditions were as follows: 1.1 μM (0.037mg/mL) KEAP Kelch, 80 μM 1,8-ANS, 25 mM PIPES, pH 7.0, 100 mM NaCl, 0.002% Tween-20. For orientation: DSF heats the sample and reads unfolding from a dye or from intrinsic fluorescence.
In turn, `Cc1ccc([C@H](CC(=O)O)c2ccn3c(C(F)(F)F)nnc3c2C)cc1CN1C[C@H]2COCCN2c2ncc(C#N)cc2S1(=O)=O` showed a Kd below 1 nM.

As to `CCc1c([C@@H](CC(=O)O)c2ccc(C)c(CN3C[C@H]4CCCCN4c4ncc(C)cc4S3(=O)=O)c2)ccn2c(C(F)(F)F)nnc12`, the Kd was below 1 nM.

In the case of `CCn1nnc2c(C)c([C@@H](CC(=O)O)c3ccc(C)c(CN4C[C@@H]5CCCN5c5ccccc5S4(=O)=O)c3)ccc21`, the Kd was below 1 nM.

As for `Cc1cc2cc([C@H](CC(=O)O)c3ccc(C)c(CN4C[C@@H]5CCCCN5c5ncccc5S4(=O)=O)c3)n(C)c2nn1`, the Kd is below 1 nM.

Compound `Cc1ccc([C@@H](CC(=O)O)c2ccn3c(C(F)(F)F)nnc3c2C)nc1CN1C[C@@H]2CCCCN2c2ncc(Cl)cc2S1(=O)=O` came in with a Kd below 1 nM.

The compound `CCn1nnc2c(C)c([C@H](c3ccc(C)c(CN4CC5(CCOCC5)Oc5ncccc5S4(=O)=O)n3)C(C)(C)C(=O)O)ccc21` returned an equilibrium dissociation constant (Kd) below 1 nM.

`Cc1ccc([C@H](CC(=O)O)c2ccn3c(C(F)(F)F)nnc3c2C)cc1CN1CC2CCCCN2c2ncc(C#N)cc2S1(=O)=O` (stereo not given in full) displayed a Kd below 1 nM.

`Cc1ccc([C@H](CC(=O)O)c2ccn3c(C(F)F)nnc3c2C)cc1CN1C[C@H]2CCCN2c2ncc(C#N)cc2S1(=O)=O` registered an equilibrium dissociation constant (Kd) below 1 nM.

For `Cc1ccc([C@@H](c2ccn3c(C(F)(F)F)nnc3c2C)C(C)(C)C(=O)O)cc1CN1C[C@H]2CCCCN2c2ncc(C#N)cc2S1(=O)=O`, the Kd was below 1 nM.

Turning to `Cc1ccc([C@H](c2ccn3c(C(F)(F)F)nnc3c2C)C(C)(C)C(=O)O)cc1CN1CC2(CCOCC2)Oc2nc(N[C@@H](C)CN3CCCC3)c(C)cc2S1(=O)=O`, the Kd was below 1 nM.

As for `Cc1ccc([C@H](CC(=O)O)c2ccn3c(C)nnc3c2)cc1CN1C[C@H]2CCCN2c2ccccc2S1(=O)=O`, the Kd was below 1 nM.

As for `Cc1ccc([C@@H](CC(=O)O)c2ccc3c(nnn3C3CC3)c2C)cc1CN1C[C@H]2CCCCN2c2ncccc2S1(=O)=O`, the Kd was below 1 nM.

Compound `Cc1ccc(C(CC(=O)O)c2ccc3c(nnn3CC3CC3)c2C)cc1CN1CC2(COC2)Oc2ccccc2S1(=O)=O` (stereo not given) returned a Kd below 1 nM.

In the case of `Cc1ccc([C@@H](CC(=O)O)c2ccn3c(C(F)(F)F)nnc3c2C)cc1CN1C[C@H]2CCCN2c2ccccc2S1(=O)=O`, the Kd is below 1 nM.

As to `Cc1ccc([C@@H](c2ccc3c(nnn3C3CC3)c2C)C(C)(C)C(=O)O)cc1CN1CC2(CC2)Oc2nc(N[C@@H](C)CN3CCCCC3)c(C)cc2S1(=O)=O`, the Kd is below 1 nM.

Regarding `Cc1ccc([C@@H](c2ccn3c(C(F)(F)F)nnc3c2C)C(C)(C)C(=O)O)cc1CN1CC2(CNC2)Oc2ncccc2S1(=O)=O`, the Kd was below 1 nM.

As for `Cc1ccc([C@H](CC(=O)O)c2ccn3c(C(F)(F)F)nnc3c2C)cc1CN1CC2(CC2)Oc2nc(N(C)CCCO)ccc2S1(=O)=O`, the Kd was below 1 nM.

In turn, `Cc1c(C(CC(=O)O)c2ccc(Cl)c(CN3CC4CCCCN4c4ncc(F)cc4S3(=O)=O)c2)ccn2c(C(F)(F)F)nnc12` (stereo not given) registered a Kd below 1 nM.

`Cc1ccc([C@@H](c2ccn3c(C(F)(F)F)nnc3c2C)C(C)(C)C(=O)O)cc1CN1CC2(CC2)Oc2nc(OCCN3CC(F)C3)c(C)cc2S1(=O)=O`: the dissociation constant (Kd) is below 1 nM.

Compound `Cc1ccc(C(CC(=O)O)c2ccc3c(nnn3C3CC3)c2C)cc1CN1CC2(COC2)Oc2ccccc2S1(=O)=O` (stereo not given) yielded a Kd below 1 nM.

The compound `Cc1cnc([C@@H](c2ccn3c(C(F)(F)F)nnc3c2C)C(C)(C)C(=O)O)cc1CN1CC2(CCOCC2)Oc2nc(OCCN3CCCC3)c(C)cc2S1(=O)=O` showed a Kd below 1 nM.

In the case of `Cc1ccc([C@H](CC(=O)O)c2ccn3c(C(F)(F)F)nnc3c2C)cc1CN1C[C@@H]2CCCCN2c2ncccc2S1(=O)=O`, the Kd is below 1 nM.

On to `CC[C@@H]1CN(Cc2cc([C@@H](CC(=O)O)c3ccn4c(C(F)F)nnc4c3C)ccc2C)S(=O)(=O)c2cccnc2O1`, for which the Kd was below 1 nM.

Consider `Cc1ccc([C@H](CC(=O)O)c2ccn3c(C(F)(F)F)nnc3c2C)cc1CN1CC2(COC2)Oc2ncccc2S1(=O)=O`, for which the Kd is below 1 nM.

Take `Cc1ncc([C@@H](c2ccc3c(nnn3C3CC3)c2C)C(C)(C)C(=O)O)cc1CN1CC2(COC2)Oc2ncccc2S1(=O)=O`: the Kd is below 1 nM.

For `Cc1ccc([C@H](c2ccn3c(C(F)(F)F)nnc3c2C)C(C)(C)C(=O)O)cc1CN1CC2(CC2)Oc2nc(N[C@@H](C)CN3CCCCC3)c(C)cc2S1(=O)=O`, the Kd was below 1 nM.

As for `Cc1ccc([C@@H](CC(=O)O)c2ccn3c(C(F)(F)F)nnc3c2C)cc1CN1C[C@H]2CCCCN2c2ncccc2S1(=O)=O`, the Kd was below 1 nM.

`Cc1cnc2c(c1)S(=O)(=O)N(Cc1cc(C(c3ccn4c(C(F)F)nnc4c3C)C(C)(C)C(=O)O)ccc1C)CC1(CCOCC1)O2` (stereo not given) had an equilibrium dissociation constant (Kd) below 1 nM.

Compound `CC[C@@H]1CN(Cc2cc([C@H](CC(=O)O)c3ccn4c(C(F)(F)F)nnc4c3C)ccc2C)S(=O)(=O)c2cccnc2O1` came in with a Kd below 1 nM.

Consider `Cc1cnc2c(c1)S(=O)(=O)N(Cc1cc([C@H](c3ccn4c(C5CC5)nnc4c3C)C(C)(C)C(=O)O)ccc1C)CC1(COC1)O2`, for which the Kd was below 1 nM.

`Cc1ccc([C@@H](CC(=O)O)c2ccn3c(C(F)F)nnc3c2C)cc1CN1C[C@H]2CCCN2c2ncccc2S1(=O)=O`: the Kd is below 1 nM.

Take `Cc1cnc2c(c1)S(=O)(=O)N(Cc1nc([C@H](CC(=O)O)c3ccn4c(C(F)(F)F)nnc4c3C)ccc1C)C[C@@H]1CCCCN21`: the Kd was below 1 nM.

The compound `Cc1ccc([C@H](CC(=O)O)c2ccn3c(C(F)(F)F)nnc3c2C)cc1CN1C[C@@H]2CCCCN2c2ncc(C#N)cc2S1(=O)=O` came in with a Kd below 1 nM.

`Cc1ccc([C@@H](CC(=O)O)c2ccn3c(C(F)(F)F)nnc3c2C)cc1CN1CC2(COC2)Oc2ccccc2S1(=O)=O` yielded a Kd below 1 nM.

Compound `Cc1ccc([C@H](CC(=O)O)c2ccn3c(C(F)(F)F)nnc3c2C)cc1CN1CC2(CC2)Oc2nc(NCCN3CCOCC3)ccc2S1(=O)=O` yielded a Kd below 1 nM.

The compound `Cc1ccc([C@@H](c2ccn3c(C(F)F)nnc3c2C)C(C)(C)C(=O)O)cc1CN1CC2(COC2)Oc2ncccc2S1(=O)=O` registered a Kd below 1 nM.

Compound `CCn1nnc2c(C)c([C@H](CC(=O)O)c3ccc(C)c(CN4C[C@H]5CCCN5c5ccccc5S4(=O)=O)c3)ccc21` showed a Kd below 1 nM.

For `Cc1ccc([C@H](CC(=O)O)c2ccn3c(C(F)(F)F)nnc3c2)cc1CN1C[C@@H]2CCCN2c2ncccc2S1(=O)=O`, the Kd was below 1 nM.

The compound `CC[C@@H]1CN(Cc2cc([C@H](CC(=O)O)c3ccn4c(C(F)(F)F)nnc4c3)ccc2C)S(=O)(=O)c2cccnc2O1` displayed a Kd below 1 nM.

As for `Cc1ccc([C@H](CC(=O)O)c2ccn3c(C(F)F)nnc3c2C)cc1CN1C[C@@H]2CCCN2c2ncc(C#N)cc2S1(=O)=O`, the Kd is below 1 nM.

In turn, `Cc1ccc([C@H](c2ccn3c(C(F)(F)F)nnc3c2C)C(C)(C)C(=O)O)cc1CN1CC2(CCOCC2)Oc2nc(NC3CC(O)C3)c(C)cc2S1(=O)=O` (stereo not given in full) came in with a Kd below 1 nM.

Turning to `Cc1cnc2c(c1)S(=O)(=O)N(Cc1cc([C@@H](CC(=O)O)c3ccn4c(C(F)F)nnc4c3C)ccc1C)CC1(CC1)O2`, the Kd is below 1 nM.

Turning to `Cc1ccc([C@@H](CC(=O)O)c2ccn3c(C(F)(F)F)nnc3c2C)nc1CN1CC2(CC2)Oc2ncccc2S1(=O)=O`, the Kd was below 1 nM.

Compound `Cc1cnc([C@@H](c2ccn3c(C(F)(F)F)nnc3c2C)C(C)(C)C(=O)O)cc1CN1CC2(CC2)Oc2nc(OCCN3CCCC3)c(C)cc2S1(=O)=O` came in with a Kd below 1 nM.

Consider `Cc1ccc([C@H](c2ccn3c(C(F)(F)F)nnc3c2C)C(C)(C)C(=O)O)cc1CN1CC2(CCOCC2)Oc2nc(OCCCOCCCO)ccc2S1(=O)=O`, for which the Kd is below 1 nM.

As to `Cc1cnc2c(c1)S(=O)(=O)N(Cc1cc([C@H](c3ccn4c(C(F)(F)F)nnc4c3C)C(C)(C)C(=O)O)ccc1C)C[C@@]1(CCOC1)O2`, the Kd is below 1 nM.

In turn, `Cc1ccc([C@H](CC(=O)O)c2ccn3c(C(F)(F)F)nnc3c2C)cc1CN1CC(C)(C)Oc2ncccc2S1(=O)=O` returned a Kd below 1 nM.

In turn, `Cc1ccc(C(c2ccn3c(C(F)(F)F)nnc3c2C)C(C)(C)C(=O)O)cc1CN1CC2(CCOCC2)Oc2nc(OCCCO)ccc2S1(=O)=O` (stereo not given) registered a Kd below 1 nM.

Regarding `Cc1ccc(C(CC(=O)O)c2ccn3c(C(F)(F)F)nnc3c2C)cc1CN1CC2(COC2)Oc2ncccc2S1(=O)=O` (stereo not given), the Kd was below 1 nM.

In the case of `Cc1ccc([C@@H](CC(=O)O)c2ccn3c(C(F)F)nnc3c2C)cc1CN1C[C@@H]2CCCN2c2ncc(C#N)cc2S1(=O)=O`, the Kd is below 1 nM.

As for `Cc1ccc([C@H](c2ccn3c(C(F)(F)F)nnc3c2C)C(C)(C)C(=O)O)cc1CN1CC2(CCOCC2)Oc2nc(N[C@H](C)CN3CCCCC3)c(C)cc2S1(=O)=O`, the Kd was below 1 nM.

Consider `Cc1ccc(C(CC(=O)O)c2ccn3c(C(F)F)nnc3c2C)cc1CN1CC2CCCCN2c2ncc(C#N)cc2S1(=O)=O` (stereo not given), for which the Kd is below 1 nM.

The compound `Cc1ccc(C(c2ccn3c(C(F)(F)F)nnc3c2C)C(C)(C)C(=O)O)cc1CN1CC2(CCOCC2)Oc2nc(N[C@H](C)CCO)ccc2S1(=O)=O` (stereo not given in full) had a Kd below 1 nM.

Compound `Cc1ccc([C@@H](c2ccn3c(C(F)F)nnc3c2C)C(C)(C)C(=O)O)cc1CN1CC2(CC2)Oc2nc(OCCN3CCCCC3)c(C)cc2S1(=O)=O` registered a Kd below 1 nM.

Take `Cc1cnc2c(c1)S(=O)(=O)N(Cc1cc([C@@H](c3ccc4c(nnn4C4CC4)c3C)C(C)(C)C(=O)O)cnc1C)CC1(CC1)O2`: the Kd is below 1 nM.

`Cc1ccc([C@@H](CC(=O)O)c2ccn3c(C(F)(F)F)nnc3c2)cc1CN1C[C@@H]2CCCN2c2ncccc2S1(=O)=O`: the Kd was below 1 nM.

Compound `Cc1ccc([C@H](CC(=O)O)c2ccn3c(C(F)F)nnc3c2C)cc1CN1CC2(COC2)Oc2ccccc2S1(=O)=O` came in with a Kd below 1 nM.

The compound `Cc1ccc([C@@H](CC(=O)O)c2ccn3c(C(F)F)nnc3c2C)cc1CN1C[C@@H]2CCCCN2c2ncccc2S1(=O)=O` registered a dissociation constant Kd below 1 nM.

Turning to `Cc1ccc(C(CC(=O)O)c2ccn3c(C(F)F)nnc3c2C)cc1CN1CC2(CC2)Oc2ncc(F)cc2S1(=O)=O` (stereo not given), the Kd is below 1 nM.

On to `CCn1nnc2c(C)c([C@H](CC(=O)O)c3ccc(C)c(CN4CC5(CCOCC5)Oc5ccc(F)cc5S4(=O)=O)n3)ccc21`, for which the Kd was below 1 nM.

The term Kd denotes the equilibrium constant for the complex coming apart.
